According to ChEMBL document CHEMBL1131783, “Prodrugs of CL316243: a selective beta3-adrenergic receptor agonist for treating obesity and diabetes” (Bioorg Med Chem Lett, 1999):

What was measured:
[1] = Partition coefficient (logP); format: physicochemical; conditions: octanol/water
[2] = biological target: Beta-3 adrenergic receptor (Rattus norvegicus) (UniProt P26255); test: Effective dose required for beta-3-adrenergic activity against free fatty acid (FFA) in rat plasma; format: functional
[3] = biological target: Beta-3 adrenergic receptor (Rattus norvegicus) (UniProt P26255); test: Beta-3-adrenergic activity measured by percent response against free fatty acid (FFA) in rat plasma at a dosage of 0.1 mg/kg; format: functional, organism-based; design: dose 0.1 mg/kg
[4] = species on record: Mus musculus; test: The compound was evaluated for the % glucose lowering along with drug intake over the test period of 5-7 days in mice
[5] = biological target: Beta-3 adrenergic receptor (Rattus norvegicus) (UniProt P26255); test: Compound was evaluated for the beta-3-adrenergic activity by measuring % response against free fatty acid (FFA) in rat plasma at a dosage of 0.1 mg/kg; format: functional, organism-based; design: dose 0.1 mg/kg

Sequence of Beta-3 adrenergic receptor (Rattus norvegicus) (P26255 whole entry): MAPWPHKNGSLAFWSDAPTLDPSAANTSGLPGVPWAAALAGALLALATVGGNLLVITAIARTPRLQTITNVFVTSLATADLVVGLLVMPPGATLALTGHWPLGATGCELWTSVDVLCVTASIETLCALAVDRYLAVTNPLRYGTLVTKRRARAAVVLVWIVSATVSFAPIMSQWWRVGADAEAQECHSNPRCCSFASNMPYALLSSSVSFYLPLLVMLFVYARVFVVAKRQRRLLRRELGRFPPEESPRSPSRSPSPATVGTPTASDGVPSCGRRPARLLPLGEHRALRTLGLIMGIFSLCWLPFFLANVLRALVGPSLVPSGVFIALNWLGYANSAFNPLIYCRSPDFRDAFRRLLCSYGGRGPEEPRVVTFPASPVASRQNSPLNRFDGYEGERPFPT

SMILES | Response [3] [%] | further results
C[C@H](Cc1ccc2c(c1)OC(C(=O)OCCC(C)(C)C)(C(=O)OCCC(C)(C)C)O2)NC[C@H](O)c1cccc(Cl)c1 | 71 | logP [1]: 3.21; ED50 [2]: 0.08 mg/kg; ED50 [4]: 0.201 mg/kg
C[C@H](Cc1ccc2c(c1)OC(C(=O)OCC(C)(C)C)(C(=O)OCC(C)(C)C)O2)NC[C@H](O)c1cccc(Cl)c1 | 134 | logP [1]: 2.16; ED50 [2]: 0.027 mg/kg; ED50 [4]: 0.028 mg/kg
C[C@H](Cc1ccc2c(c1)OC(C(=O)[O-])(C(=O)[O-])O2)NC[C@H](O)c1cccc(Cl)c1.[Na+].[Na+] |  | logP [1]: 0.046; ED50 [2]: 0.24 mg/kg; Response [5]: 2%; ED50 [4]: 0.54 mg/kg
C[C@H](Cc1ccc2c(c1)OC(C(=O)OCC1CCC1)(C(=O)OCC1CCC1)O2)NC[C@H](O)c1cccc(Cl)c1 | 83 | logP [1]: 2.34; ED50 [2]: 0.071 mg/kg; ED50 [4]: 0.128 mg/kg
C[C@H](Cc1ccc2c(c1)OC(C(=O)OCCc1ccccc1)(C(=O)OCCc1ccccc1)O2)NC[C@H](O)c1cccc(Cl)c1 | 95 | ED50 [2]: 0.071 mg/kg; ED50 [4]: 0.156 mg/kg
CC(C)CCOC(=O)C1(C(=O)OCCC(C)C)Oc2ccc(C[C@@H](C)NC[C@H](O)c3cccc(Cl)c3)cc2O1 | 109 | logP [1]: 3.77; ED50 [2]: 0.026 mg/kg; ED50 [4]: 0.11 mg/kg
CC(C)OC(=O)C1(C(=O)OC(C)C)Oc2ccc(C[C@@H](C)NC[C@H](O)c3cccc(Cl)c3)cc2O1 | 100 | logP [1]: 1.29; ED50 [2]: 0.061 mg/kg; ED50 [4]: 0.056 mg/kg
C[C@H](Cc1ccc2c(c1)OC(C(=O)OCCCCc1ccccc1)(C(=O)OCCCCc1ccccc1)O2)NC[C@H](O)c1cccc(Cl)c1 | 43 | 
C[C@H](Cc1ccc2c(c1)OC(C(=O)O)(C(=O)OCC1CCCCC1)O2)NC[C@H](O)c1cccc(Cl)c1 (stereo partly drawn) | 47 | 
C[C@H](Cc1ccc2c(c1)OC(C(=O)OCCc1cccs1)(C(=O)OCCc1cccs1)O2)NC[C@H](O)c1cccc(Cl)c1 | 77 | ED50 [2]: 0.076 mg/kg; ED50 [4]: 0.208 mg/kg
C[C@H](Cc1ccc2c(c1)OC(C(=O)OCOC(=O)C1CCCCC1)(C(=O)OCOC(=O)C1CCCCC1)O2)NC[C@H](O)c1cccc(Cl)c1 | 19 | 
CCOC(=O)C1(C(=O)O)Oc2ccc(C[C@@H](C)NC[C@H](O)c3cccc(Cl)c3)cc2O1 (stereo partly drawn) | 57 | 
C[C@H](Cc1ccc2c(c1)OC(C(=O)O)(C(=O)OCC1CC1)O2)NC[C@H](O)c1cccc(Cl)c1 (stereo partly drawn) | 37 | 
CCCCOCCOC(=O)C1(C(=O)OCCOCCCC)Oc2ccc(C[C@@H](C)NC[C@H](O)c3cccc(Cl)c3)cc2O1 | 58 | 
CCOC(=O)C(C)OC(=O)C1(C(=O)OC(C)C(=O)OCC)Oc2ccc(C[C@@H](C)NC[C@H](O)c3cccc(Cl)c3)cc2O1 (stereo partly drawn) | 9 | 
C[C@H](Cc1ccc2c(c1)OC(C(=O)OCC[Si](C)(C)C)(C(=O)OCC[Si](C)(C)C)O2)NC[C@H](O)c1cccc(Cl)c1 | 60 | 
C[C@H](Cc1ccc2c(c1)OC(C(=O)OCCc1ccsc1)(C(=O)OCCc1ccsc1)O2)NC[C@H](O)c1cccc(Cl)c1 | 80 | 
C[C@H](Cc1ccc2c(c1)OC(C(=O)O)(C(=O)OCCOCc1ccccc1)O2)NC[C@H](O)c1cccc(Cl)c1 (stereo partly drawn) | 109 | 
C[C@H](Cc1ccc2c(c1)OC(C(=O)O)(C(=O)OCCOc1ccccc1)O2)NC[C@H](O)c1cccc(Cl)c1 (stereo partly drawn) | 51 | 
CC(OC(=O)OC1CCCCC1)OC(=O)C1(C(=O)OC(C)OC(=O)OC2CCCCC2)Oc2ccc(C[C@@H](C)NC[C@H](O)c3cccc(Cl)c3)cc2O1 (stereo partly drawn) | 17 | 
C[C@H](Cc1ccc2c(c1)OC(C(=O)OCCOc1ccc(Cl)cc1)(C(=O)OCCOc1ccc(Cl)cc1)O2)NC[C@H](O)c1cccc(Cl)c1 | 26 | 
CCC(CC)COC(=O)C1(C(=O)OCC(CC)CC)Oc2ccc(C[C@@H](C)NC[C@H](O)c3cccc(Cl)c3)cc2O1 | 86 | 

SMILES | Response [3] [%] | further results
C[C@H](Cc1ccc2c(c1)OC(C(=O)O)(C(=O)OCC(C)(C)C)O2)NC[C@H](O)c1cccc(Cl)c1 (stereo partly drawn) | 81 | 
C[C@H](Cc1ccc2c(c1)OC(C(=O)OCCCc1ccccc1)(C(=O)OCCCc1ccccc1)O2)NC[C@H](O)c1cccc(Cl)c1 | 61 | 
C[C@H](Cc1ccc2c(c1)OC(C(=O)O)(C(=O)OCC1CCC1)O2)NC[C@H](O)c1cccc(Cl)c1 (stereo partly drawn) | 39 | 
C[C@H](Cc1ccc2c(c1)OC(C(=O)OCCOCc1ccccc1)(C(=O)OCCOCc1ccccc1)O2)NC[C@H](O)c1cccc(Cl)c1 | 120 | 
COC(=O)C(C)OC(=O)C1(C(=O)OC(C)C(=O)OC)Oc2ccc(C[C@@H](C)NC[C@H](O)c3cccc(Cl)c3)cc2O1 (stereo partly drawn) | 42 | 
C[C@H](Cc1ccc2c(c1)OC(C(=O)OCOC(=O)C(C)(C)C)(C(=O)OCOC(=O)C(C)(C)C)O2)NC[C@H](O)c1cccc(Cl)c1 | 14 | 
COCCOCCOC(=O)C1(C(=O)OCCOCCOC)Oc2ccc(C[C@@H](C)NC[C@H](O)c3cccc(Cl)c3)cc2O1 | 71 | 
C[C@H](Cc1ccc2c(c1)OC(C(=O)OCCOc1ccccc1)(C(=O)OCCOc1ccccc1)O2)NC[C@H](O)c1cccc(Cl)c1 | 2 | 
CC(OC(=O)c1ccccc1)OC(=O)C1(C(=O)OC(C)OC(=O)c2ccccc2)Oc2ccc(C[C@@H](C)NC[C@H](O)c3cccc(Cl)c3)cc2O1 (stereo partly drawn) | 30 | 
CCCCCCCCOC(=O)C1(C(=O)O)Oc2ccc(C[C@@H](C)NC[C@H](O)c3cccc(Cl)c3)cc2O1 (stereo partly drawn) | 45 | 
C[C@H](Cc1ccc2c(c1)OC(C(=O)OCC(=O)Oc1ccccc1)(C(=O)OCC(=O)Oc1ccccc1)O2)NC[C@H](O)c1cccc(Cl)c1 | 37 | 
C[C@H](Cc1ccc2c(c1)OC(C(=O)OC1CCCC1)(C(=O)OC1CCCC1)O2)NC[C@H](O)c1cccc(Cl)c1 | 118 | 
CCOCCOC(=O)C1(C(=O)O)Oc2ccc(C[C@@H](C)NC[C@H](O)c3cccc(Cl)c3)cc2O1 (stereo partly drawn) | 73 | 
CC(C)OC(=O)C1(C(=O)O)Oc2ccc(C[C@@H](C)NC[C@H](O)c3cccc(Cl)c3)cc2O1 (stereo partly drawn) | 45 | 
CC(C)OC(=O)COC(=O)C1(C(=O)OCC(=O)OC(C)C)Oc2ccc(C[C@@H](C)NC[C@H](O)c3cccc(Cl)c3)cc2O1 | 78 | 
CCCOC(=O)COC(=O)C1(C(=O)OCC(=O)OCCC)Oc2ccc(C[C@@H](C)NC[C@H](O)c3cccc(Cl)c3)cc2O1 | 30 | 
CC(OC(=O)C(C)(C)C)OC(=O)C1(C(=O)OC(C)OC(=O)C(C)(C)C)Oc2ccc(C[C@@H](C)NC[C@H](O)c3cccc(Cl)c3)cc2O1 (stereo partly drawn) | 23 | 
CCOC(=O)C1(C(=O)OCC)Oc2ccc(C[C@@H](C)NC[C@H](O)c3cccc(Cl)c3)cc2O1 | 114 | logP [1]: 0.35; ED50 [2]: 0.034 mg/kg; ED50 [4]: 0.1 mg/kg
C[C@H](Cc1ccc2c(c1)OC(C(=O)OCC1(C)CCCCC1)(C(=O)OCC1(C)CCCCC1)O2)NC[C@H](O)c1cccc(Cl)c1 | 84 | 
CCC(=O)OCOC(=O)C1(C(=O)OCOC(=O)CC)Oc2ccc(C[C@@H](C)NC[C@H](O)c3cccc(Cl)c3)cc2O1 | 10 | 
CC(C)CCC(=O)OCOC(=O)C1(C(=O)OCOC(=O)CCC(C)C)Oc2ccc(C[C@@H](C)NC[C@H](O)c3cccc(Cl)c3)cc2O1 | 37 | 
